≈ marks a conversion by molar mass, not a printed value. Where two headings read alike, the source gives them in different places.
How the values were obtained:
[1] = system: Salmonella schottmuelleri; test: in vivo protection of mice challenged with a fatal bacterial infection; details: sc, subcutaneous, 1 and 4 hours after challenge, read-out: dose required per treatment to protect fifty percent of the infected mice (ED50)
Protocol: (§1) The following example illustrates the in vivo activity of the compounds of this invention.
(§2) Several groups of 10 mice are challenged with a fatal bacterial infection. Various dose levels of the test compound are administered orally or subcutaneously to separate groups of these animals 1 and 4 hours after challenge. After three or four days, depending upon the test organism, the number of survivors are recorded at each dose level and the dose required per treatment to protect fifty percent of the infected mice (ED50) is calculated by the method described by Reed and Muench, Amer. J. Hyg. 27, 493-497 (1938).

[2] = system: Streptococcus pyogenes; test: as above; details: 1 and 4 hours after challenge, read-out: dose required per treatment to protect fifty percent of the infected mice (ED50)
Protocol: as §1, §2

[3] = system: Diplococcus pneumoniae; test: as above; details: Streptococcus pneumoniae, 1 and 4 hours after challenge, read-out: dose required per treatment to protect fifty percent of the infected mice (ED50)
Protocol: as §1, §2

[4] = system: Salmonella schottmuelleri; test: in vitro minimal inhibitory concentration, two-fold serial dilutions in trypticase soy broth; assay type: cell-based; details: 24 hours at 37° C.
Protocol: (§3) The following example illustrates the in vitro activity of the compounds of this invention.
(§4) Two-fold serial dilutions of the test compound are made in trypticase soy broth. A series of tubes of both containing different concentrations of the test compound are inoculated with the particular bacterial culture used for in vitro activity. The inoculated tubes are examined for the inhibition of bacterial growth after 24 hours of incubation at 37° C. The following table summarizes the minimal inhibitory concentration (MIC) for the various bacterial cultures tested with the compound 7-[2-amino-2-(3,4-methylenedioxyphenyl)acetamido]desacetoxycephalosporanicacid.

[5] = system: Escherichia coli; test: as above; assay type: cell-based; details: 24 hours at 37° C.
Protocol: as §3, §4

[6] = system: Streptococcus pyogenes; test: as above; assay type: cell-based; details: 24 hours at 37° C.
Protocol: as §3, §4

[7] = system: Diplococcus pneumoniae; test: as above; assay type: cell-based; details: Streptococcus pneumoniae, 24 hours at 37° C.
Protocol: as §3, §4

[8] = system: Staphylococcus aureus; test: as above; assay type: cell-based; details: 24 hours at 37° C.
Protocol: as §3, §4

CC1=C(C(=O)O)N2C(=O)C(NC(=O)C(N)c3ccc4c(c3)OCO4)C2SC1 (stereo not shown) [7-[2-Amino-2-(3,4-methylenedioxyphenyl)acetamido] desacetoxycephalosporanic acid]
ED50 [1]: 26 mg/kg
ED50 ([2]; po, per os): 1 mg/kg
ED50 ([2]; sc, subcutaneous): 0.9 mg/kg
ED50 ([3]; po, per os): 45 mg/kg
ED50 ([3]; sc, subcutaneous): 40 mg/kg
MIC [4]: 50 µg/mL (≈ 128 µM)
MIC [5]: 50 µg/mL (≈ 128 µM)
MIC [6]: 0.8 µg/mL (≈ 2.04 µM)
MIC [7]: 3.1 µg/mL (≈ 7.92 µM)
MIC [8]: 1.6 µg/mL (≈ 4.09 µM)

Reference: US4020060A, “7-[α-Amino- ω-(3,4-methylenedioxyphenyl)acylamido]cephalosporanic acid derivatives” (Richardson-Merrell Inc., priority 1975, dated 1977)
